Test results as given in patent EP4624465A1, “COMPOUND SERVING AS DDR1 KINASE INHIBITOR, AND MEDICINE” (Nippon Shinyaku Co., Ltd., priority 2022, dated 2024).
Structures can show the parent of a compound that is named as a salt.

Molecular target: DDR1 kinase (Homo sapiens, UniProt Q08345)
Assay: Evaluation of DDR1 kinase inhibition (LANCE Ultra TR-FRET kinase assay)
Type: biochemical
Set-up: purchased Carna Biosciences 08-113
Settings: DDR1 protein 0.5 nM, LANCE Ultra ULight-poly GAT substrate, 2 hours at room temperature, duplicate; read-out: DDR-1 IC50

Chain of DDR1 kinase (Q08345 19-876 isoform Q08345-2 limits assumed): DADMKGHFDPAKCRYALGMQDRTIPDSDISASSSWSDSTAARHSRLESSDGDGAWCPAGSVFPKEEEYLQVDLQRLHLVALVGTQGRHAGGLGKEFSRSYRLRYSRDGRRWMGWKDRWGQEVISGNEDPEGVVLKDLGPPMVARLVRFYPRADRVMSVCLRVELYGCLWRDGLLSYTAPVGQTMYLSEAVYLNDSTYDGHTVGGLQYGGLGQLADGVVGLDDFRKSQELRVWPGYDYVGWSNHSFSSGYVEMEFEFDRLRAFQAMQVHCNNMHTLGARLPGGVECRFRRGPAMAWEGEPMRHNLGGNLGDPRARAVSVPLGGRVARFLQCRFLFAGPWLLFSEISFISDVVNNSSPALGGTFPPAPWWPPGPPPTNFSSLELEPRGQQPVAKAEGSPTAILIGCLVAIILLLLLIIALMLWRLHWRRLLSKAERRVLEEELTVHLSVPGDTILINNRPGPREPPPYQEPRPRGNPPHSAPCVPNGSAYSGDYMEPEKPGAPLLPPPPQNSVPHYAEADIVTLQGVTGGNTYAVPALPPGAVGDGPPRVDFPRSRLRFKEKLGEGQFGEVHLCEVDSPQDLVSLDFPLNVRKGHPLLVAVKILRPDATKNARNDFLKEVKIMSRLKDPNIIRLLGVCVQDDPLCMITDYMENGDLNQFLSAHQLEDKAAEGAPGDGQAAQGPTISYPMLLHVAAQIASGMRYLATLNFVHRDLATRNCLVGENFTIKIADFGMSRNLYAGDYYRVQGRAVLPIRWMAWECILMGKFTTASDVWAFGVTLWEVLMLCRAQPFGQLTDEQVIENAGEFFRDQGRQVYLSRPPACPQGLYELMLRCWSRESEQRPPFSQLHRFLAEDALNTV

IC50	SMILES
7.1 nM	CC1(c2nn(CC(=O)N3CCC[C@H]3C(F)(F)F)c3ccccc23)CN(C(=O)c2ccnc(N)c2)C1 [Compound E-6, 2-{3-[1-(2-aminopyridine-4-carbonyl)-3-methylazetidin-3-yl]-1H-indazol-1-yl}-1-[(2S)-2-(trifluoromethyl)pyrrolidin-1-yl]ethan-1-one]
15 nM	Cc1nc(N)sc1C(=O)N1CC(c2nn(CC(=O)N3CCOCC3(C)C)c3ccccc23)C1 [Compound E-7, 2-{3-[1-(2-amino-4-methyl-1,3-thiazole-5-carbonyl)azetidin-3-yl]-1H-indazol-1-yl}-1-(3,3-dimethylmorpholin-4-yl)ethan-1-one]
14 nM	Nc1cc(C(=O)N2CCC(c3nn(Cc4ccc(C(F)(F)F)cn4)c4cccc(F)c34)CC2)ccn1 [Compound E-9, 4-[4-(4-fluoro-1-{[5-(trifluoromethy)pyridin-2-yl]methyl}-1H-indazol-3-yl)piperidine-1-carbonyl]pyridin-2-amine]
0.3 nM	Nc1cc(C(=O)N2CCC(c3cn(CC(=O)N4CCC[C@H]4C(F)(F)F)c4cccc(F)c34)CC2)c(F)cn1 [Compound E-10, 2-{3-[1-(2-amino-5-fluoropyridine-4-carbonyl)piperidin-4-yl]-4-fluoro-1H-indol-1-yl}-1-[(2S)-2-(trifluoromethyl)pyrrolidin-1-yl]ethan-1-one]
5.1 nM	Nc1cc(C(=O)N2CC(c3nn(Cc4noc(C5(C(F)(F)F)CC5)n4)c4cncc(F)c34)C2)ccn1 [Compound E-14, 4-{3-[4-fluoro-1-({5-[1-(trifluoromethyl)cyclopropyl]-1,2,4-oxadiazol-3-yl)methyl)-1H-pyrazolo[3,4-c]pyridin-3-yl]azetidine-1-carbonyl}pyridin-2-amine]
0.3 nM	O=C(c1ccnc2[nH]ncc12)N1CC(c2nn(CC(=O)N3CCC[C@H]3C(F)(F)F)c3cc(F)cc(F)c23)C1 [Compound E-17]
84 nM	Nc1cc(C(=O)N2CC(c3nn(Cc4nnc(-c5ccc(F)cc5)o4)c4cccc(F)c34)C2)ccn1 [Compound E-20, 4-[3-(4-fluoro-1-{[5-(4-fluorophenyl)-1,3,4-oxadiazol-2-yl]methyl}-1H-indazol-3-yl)azetidine-1-carbonyl]pyridin-2-amine]
9 nM	Nc1cc(C(=O)N2CC(c3nn(CC(=O)N4CCC[C@H]4C(F)(F)F)c4c3CC(F)(F)CC4)C2)c(F)cn1 [Compound E-25]
160 nM	O=C(Cn1nc(C2CN(C(=O)c3ccnc(NC4COC4)c3)C2)c2c(F)cc(F)cc21)NCC(F)(F)F [Compound E-32, 2-[4,6-difluoro-3-(1-{2-[(oxetan-3-yl)amino]pyridine-4-carbonyl}azetidin-3-yl)-1H-indazol-1-yl]-N-(2,2,2-trifluoroethyl)acetamide]
270 nM	Nc1cc(C(=O)N2CC(c3nn(CC(=O)N4CCC[C@@H]4CO)c4cc(F)cc(F)c34)C2)ccn1 [Compound E-36, 2-{3-[1-(2-aminopyridine-4-carbonyl)azetidin-3-yl]-4,6-difluoro-1H-indazol-1-yl}-1-[(2R)-2-(hydroxymethyl)pyrrolidin-1-yl]ethan-1-one]
190 nM	Nc1cc(C(=O)N2CC(c3nn(Cc4cn(CC5COC5)nn4)c4cccc(F)c34)C2)ccn1 [Compound E-38]
9.2 nM	Cc1c(C(=O)N2CC(c3nn(CC(=O)N4CCC[C@H]4COC(F)(F)F)c4cncc(F)c34)C2)ccnc1N [Compound E-44, 2-{3-[1-(2-amino-3-methylpyridine-4-carbonyl)azetidin-3-yl]-4-fluoro-1H-pyrazolo[3,4-c]pyridin-1-yl]-1-[(2S)-2-[(trifluoromethoxy)methyl]pyrrolidin-1-yl]ethan-1-one di-p-toluenesulfonate]
140 nM	Nc1cc(C(=O)N2CC=C(c3nn(CC(=O)N4CCC[C@H]4C(F)(F)F)c4ccccc34)CC2)c(F)cn1 [Compound E-47, 2-{3-[1-(2-amino-5-fluoropyridine-4-carbonyl)-1,2,3,6-tetrahydropyridin-4-yl]-1H-indazol-1-yl}-1-[(2S)-2-(trifluoromethyl)pyrrolidin-1-yl]ethan-1-one]
9.9 nM	Nc1cc(C(=O)N2CCC(c3nn(CC(=O)N4CCC[C@H]4C(F)(F)F)c4ccccc34)CC2)c(F)cn1 [Compound E-49, 2-{3-[1-(2-amino-5-fluoropyridine-4-carbonyl)piperidin-4-yl]-1H-indazol-1-yl}-1-[(2S)-2-(trifluoromethyl)pyrrolidin-1-yl]ethan-1-one]
43 nM	Nc1cc(C(=O)N2CC(c3nn(Cc4cn(CC(F)(F)F)nn4)c4cccc(F)c34)C2)ccn1 [Compound E-52, 4-[3-(1-{[1-(2,2,2-trifluoroethyl)-1H-1,2,3-triazol-4-yl]methyl]-4-fluoro-1H-indazol-3-yl)azetidine-1-carbonyl]pyridin-2-amine hydrochloride]
0.8 nM	Nc1cc(C(=O)N2CC(c3nn(CC(=O)N4CCC[C@H]4COC(F)(F)F)c4cc(F)cc(F)c34)C2)ccn1 [Compound E-56, 2-{3-[1-(2-aminopyridine-4-carbonyl)azetidin-3-yl]-4,6-difluoro-1H-indazol-1-yl}-1-[(2S)-2-[(trifluoromethoxy)methyl]pyrrolidin-1-yl]ethan-1-one]
140 nM	Nc1cc(C(=O)N2CC(c3nn(CC4CCC(F)(F)CC4)c4cc(F)cc(F)c34)C2)ccn1 [Compound E-57, 4-(3-{1-[(4,4-difluorocyclohexyl)methyl]-4,6-difluoro-1H-indazol-3-yl}azetidine-1-carbonyl)pyridin-2-amine]
4.4 nM	Nc1cc(C(=O)N2CC(c3nn(CC(=O)N4CCC[C@H]4COC(F)(F)F)c4cncc(F)c34)C2)c(F)cn1 [Compound E-58, 2-{3-[1-(2-amino-5-fluoropyridine-4-carbonyl)azetidin-3-yl]-4-fluoro-1H-pyrazolo(3,4-c]pyridin-1-yl}-1-[(2S)-2-[(trifluoromethoxy)methyl]pyrrolidin-1-yl]ethan-1-one di-p-toluenesulfonate]
6.5 nM	Nc1cc(C(=O)N2CC(c3nn(CC(=O)N4CCC[C@@H]4C(F)(F)F)c4ccccc34)C2)c(F)cn1 [Compound E-60, 2-{3-[1-(2-amino-5-fluoropyridine-4-carbonyl)azetidin-3-yl]-1H-indazol-1-yl}-1-[(2R)-2-(trifluoromethyl)pyrrolidin-1-yl]ethan-1-one]
9.3 nM	Nc1cc(C(=O)N2CC(c3nn(CC(=O)NCC(F)(F)F)c4cccc(Cl)c34)C2)ccn1 [Compound E-62, 2-{3-[1-(2-aminopyridine-4-carbonyl)azetidin-3-yl}-4-chloro-1H-indazol-1-yl}-N-(2,2,2-trifluoroethyl)acetamide]
110 nM	Cc1nccc2c1c(C1CN(C(=O)c3ccnc(NC4CC4)c3)C1)nn2CC(=O)N1CCC[C@H]1C(F)(F)F [Compound E-93, 2-(3-{1-[2-(cyclopropylamino)pyridine-4-carbonyl]azetidin-3-yl}-4-methyl-1H-pyrazolo[4,3-c]pyridin-1-yl)-1-[(2S)-2-(trifluoromethyl)pyrrolidin-1-yl]ethan-1-one]
150 nM	Cc1c(C(=O)N2CC(c3nn(CC(=O)N4CCC[C@H]4C(F)(F)F)c4ccnc(C)c34)C2)ccnc1N [Compound E-94]
